Measurements reported in PubChem BioAssay AID1259407 (Chemical Carcinogenesis Research Information System (CCRIS), 2018).
Calls of active or inactive are those of the source. How the calls were made is not given here.

System: CCRIS mutagenicity, Ames/micronucleus/aberration tests
Assay: CCRIS mutagenicity studies
Excerpt: The CCRIS database contains chemical records with carcinogenicity, mutagenicity, tumor promotion, and tumor inhibition test results. It was developed by the National Cancer Institute (NCI). Data are derived from studies cited in primary journals, current awareness tools, NCI reports, and other sources. Test results have been reviewed by experts in carcinogenesis and mutagenesis.
CCRIS provides historical information from the years 1985 - 2011. It is no longer updated.
This is an archive assay for CCRIS mutagenicity studies.

[1] = Test System: AMES SALMONELLA TYPHIMURIUM, Strain/Indicator: TA98, Metabolic Activation: NONE, Method: PREINCUBATION
[2] = Test System: AMES SALMONELLA TYPHIMURIUM, Strain/Indicator: TA98, Metabolic Activation: NONE, Method: STANDARD PLATE
[3] = Test System: AMES SALMONELLA TYPHIMURIUM, Strain/Indicator: TA100, Metabolic Activation: NONE, Method: STANDARD PLATE
[4] = Test System: AMES SALMONELLA TYPHIMURIUM, Strain/Indicator: TA100, Metabolic Activation: NONE, Method: PREINCUBATION

With `O=[N+]([O-])c1cc2ccccc2c2ccccc12` the mutagenic call (Test System: AMES SALMONELLA TYPHIMURIUM, Strain/Indicator: TA98(1,8-DNP6), Metabolic Activation: NONE, Method: STANDARD PLATE) was “active; positive”, the mutagenic call (Test System: AMES SALMONELLA TYPHIMURIUM, Strain/Indicator: TA98(NR), Metabolic Activation: NONE, Method: STANDARD PLATE) was “active; positive” and the mutagenic call [1] was “active; positive”. For the same compound, the mutagenic call [2] was “active; positive”, the mutagenic call (Test System: AMES SALMONELLA TYPHIMURIUM, Strain/Indicator: TA98, Metabolic Activation: RAT, LIVER, S-9, PCB (10%), Method: PREINCUBATION) was “inactive; negative” and the mutagenic call [3] was “active; positive”. For the same compound, the mutagenic call (Test System: AMES SALMONELLA TYPHIMURIUM, Strain/Indicator: TA7001, Metabolic Activation: NONE, Method: PREINCUBATION) was “active; positive”, the mutagenic call (Test System: AMES SALMONELLA TYPHIMURIUM, Strain/Indicator: TA7002, Metabolic Activation: NONE, Method: PREINCUBATION) was “active; positive” and the mutagenic call (Test System: AMES SALMONELLA TYPHIMURIUM, Strain/Indicator: TA7003, Metabolic Activation: NONE, Method: PREINCUBATION) was “inactive; negative”. For the same compound, the mutagenic call (Test System: AMES SALMONELLA TYPHIMURIUM, Strain/Indicator: TA7004, Metabolic Activation: NONE, Method: PREINCUBATION) was “active; positive”, the mutagenic call (Test System: AMES SALMONELLA TYPHIMURIUM, Strain/Indicator: TA7005, Metabolic Activation: NONE, Method: PREINCUBATION) was “active; positive” and the mutagenic call (Test System: AMES SALMONELLA TYPHIMURIUM, Strain/Indicator: TA7006, Metabolic Activation: NONE, Method: PREINCUBATION) was “active; positive”. The mutagenic call (Test System: AMES SALMONELLA TYPHIMURIUM, Strain/Indicator: YG1021, Metabolic Activation: NONE, Method: STANDARD PLATE) was “active; positive”, the mutagenic call (Test System: AMES SALMONELLA TYPHIMURIUM, Strain/Indicator: YG1024, Metabolic Activation: NONE, Method: STANDARD PLATE) was “active; positive” and the mutagenic call (Test System: AMES SALMONELLA TYPHIMURIUM, Strain/Indicator: YG1026, Metabolic Activation: NONE, Method: STANDARD PLATE) was “active; positive”. The mutagenic call (Test System: AMES SALMONELLA TYPHIMURIUM, Strain/Indicator: YG1029, Metabolic Activation: NONE, Method: STANDARD PLATE) was “active; positive”.
For `ClCc1cc2cc3ccccc3c3ccc4cccc1c4c23`, the mutagenic call [2] was “active; positive” and the mutagenic call [3] was “active; positive”.
`COc1cc(O)c2c(=O)c3c(OC)cc4c(c3oc2c1OC)C1CCOC1O4` (stereo not given) was tested, and the mutagenic call (Test System: AMES SALMONELLA TYPHIMURIUM, Strain/Indicator: TA98, Metabolic Activation: RAT, LIVER, S-9, PHENOBARBITAL, Method: STANDARD PLATE) was “inactive; negative” and the mutagenic call (Test System: AMES SALMONELLA TYPHIMURIUM, Strain/Indicator: TA100, Metabolic Activation: RAT, LIVER, S-9, PHENOBARBITAL, Method: STANDARD PLATE) was “inactive; negative”.
For `COc1ccc(C(Cl)=C(c2ccc(OC)cc2)c2ccc(OC)cc2)cc1`, the mutagenic call (Test System: AMES SALMONELLA TYPHIMURIUM, Strain/Indicator: TA97, Metabolic Activation: HAMSTER, LIVER, S-9, AROCLOR 1254 (10 OR 30%), Method: PREINCUBATION) was “inactive; negative”, the mutagenic call (Test System: AMES SALMONELLA TYPHIMURIUM, Strain/Indicator: TA97, Metabolic Activation: NONE, Method: PREINCUBATION) was “inactive; negative” and the mutagenic call (Test System: AMES SALMONELLA TYPHIMURIUM, Strain/Indicator: TA97, Metabolic Activation: RAT, LIVER, S-9, AROCLOR 1254 (10 OR 30%), Method: PREINCUBATION) was “inactive; negative”. The mutagenic call (Test System: AMES SALMONELLA TYPHIMURIUM, Strain/Indicator: TA98, Metabolic Activation: HAMSTER, LIVER, S-9, AROCLOR 1254 (10 OR 30%), Method: PREINCUBATION) was “inactive; negative”, the mutagenic call [1] was “inactive; negative” and the mutagenic call (Test System: AMES SALMONELLA TYPHIMURIUM, Strain/Indicator: TA98, Metabolic Activation: RAT, LIVER, S-9, AROCLOR 1254 (10 OR 30%), Method: PREINCUBATION) was “inactive; negative”. For the same compound, the mutagenic call (Test System: AMES SALMONELLA TYPHIMURIUM, Strain/Indicator: TA100, Metabolic Activation: HAMSTER, LIVER, S-9, AROCLOR 1254 (10 OR 30%), Method: PREINCUBATION) was “inactive; negative”, the mutagenic call [4] was “inactive; negative” and the mutagenic call (Test System: AMES SALMONELLA TYPHIMURIUM, Strain/Indicator: TA100, Metabolic Activation: RAT, LIVER, S-9, AROCLOR 1254 (10 OR 30%), Method: PREINCUBATION) was “inactive; negative”. The mutagenic call (Test System: AMES SALMONELLA TYPHIMURIUM, Strain/Indicator: TA1535, Metabolic Activation: HAMSTER, LIVER, S-9, AROCLOR 1254 (10 OR 30%), Method: PREINCUBATION) was “inactive; negative”, the mutagenic call (Test System: AMES SALMONELLA TYPHIMURIUM, Strain/Indicator: TA1535, Metabolic Activation: NONE, Method: PREINCUBATION) was “inactive; negative” and the mutagenic call (Test System: AMES SALMONELLA TYPHIMURIUM, Strain/Indicator: TA1535, Metabolic Activation: RAT, LIVER, S-9, AROCLOR 1254 (10 OR 30%), Method: PREINCUBATION) was “inactive; negative”. The mutagenic call (Test System: AMES SALMONELLA TYPHIMURIUM, Strain/Indicator: TA1537, Metabolic Activation: HAMSTER, LIVER, S-9, AROCLOR 1254 (10%), Method: PREINCUBATION) was “inactive; negative”, the mutagenic call (Test System: AMES SALMONELLA TYPHIMURIUM, Strain/Indicator: TA1537, Metabolic Activation: HAMSTER, LIVER, S-9, AROCLOR 1254 (30%), Method: PREINCUBATION) was “inactive; negative” and the mutagenic call (Test System: AMES SALMONELLA TYPHIMURIUM, Strain/Indicator: TA1537, Metabolic Activation: NONE, Method: PREINCUBATION) was “inactive; negative”. The mutagenic call (Test System: AMES SALMONELLA TYPHIMURIUM, Strain/Indicator: TA1537, Metabolic Activation: RAT, LIVER, S-9, AROCLOR 1254 (10 OR 30%), Method: PREINCUBATION) was “inactive; negative”.
`O=C1c2ccccc2C(=O)N1SC(Cl)(Cl)Cl` was tested, and the mutagenic call [2] was “inactive; negative”, the mutagenic call [4] was “active; positive” and the mutagenic call (Test System: AMES SALMONELLA TYPHIMURIUM, Strain/Indicator: TA100, Metabolic Activation: RAT, LIVER, S-9, AROCLOR 1254, Method: STANDARD PLATE) was “active; positive”. The mutagenic call (Test System: AMES SALMONELLA TYPHIMURIUM, Strain/Indicator: TA100, Metabolic Activation: RAT, LIVER, S-9, Method: STANDARD PLATE) was “active; positive”, the mutagenic call (Test System: AMES SALMONELLA TYPHIMURIUM, Strain/Indicator: TA100, Metabolic Activation: S-9 MIX, Method: STANDARD PLATE) was “active; positive” and the mutagenic call (Test System: AMES SALMONELLA TYPHIMURIUM, Strain/Indicator: TA102, Metabolic Activation: NONE, Method: STANDARD PLATE) was “inactive; negative”. For the same compound, the mutagenic call (Test System: AMES SALMONELLA TYPHIMURIUM, Strain/Indicator: TA104, Metabolic Activation: NONE, Method: STANDARD PLATE) was “active; positive”, the mutagenic call (Test System: AMES SALMONELLA TYPHIMURIUM, Strain/Indicator: TA104, Metabolic Activation: RAT, LIVER, S-9, PHENOBARBITAL, Method: STANDARD PLATE) was “active; positive” and the mutagenic call (Test System: AMES SALMONELLA TYPHIMURIUM, Strain/Indicator: TA1535, Metabolic Activation: NONE, Method: STANDARD PLATE) was “active; positive”. For the same compound, the mutagenic call (Test System: AMES SALMONELLA TYPHIMURIUM, Strain/Indicator: TA1535, Metabolic Activation: RAT, LIVER, S-9, AROCLOR 1254, Method: STANDARD PLATE) was “active; positive”, the mutagenic call (Test System: E. COLI, Strain/Indicator: WP2, Metabolic Activation: NONE, Method: STANDARD PLATE) was “active; positive” and the mutagenic call (Test System: E. COLI, Strain/Indicator: WP2, Metabolic Activation: RAT, LIVER, S-9, Method: STANDARD PLATE) was “active; positive”. The mutagenic call (Test System: E. COLI, Strain/Indicator: WP2 UVRA, Metabolic Activation: NONE, Method: STANDARD PLATE) was “active; positive” and the mutagenic call (Test System: E. COLI, Strain/Indicator: WP2 UVRA, Metabolic Activation: RAT, LIVER, S-9, AROCLOR 1254, Method: STANDARD PLATE) was “active; positive”.
